The text below walks through data of patent US9006262B2 (priority 2011, dated 2015).

The subject of the test is C57BL/6 mouse line transplanted with B16-F10 melanoma cells. As to conditions: in vivo.

In the case of `CN(C(=O)/C=C/c1ccoc1)[C@@H]1CC[C@@]2(O)[C@H]3Cc4ccc(O)c5c4[C@@]2(CCN3CC2CC2)[C@H]1O5.Cl` [Compound 1, (−)-17-(cyclopropylmethyl)-3,14β-dihydroxy-4,5α-epoxy-6β-[N-methyl-trans-3-(3-furyl)acrylamido]morphinan hydrochloride], the “life-prolonging effect (survival rate / lifetime)” value is listed as “statistically significant life-prolonging effect” and the “suppressive effect on body weight loss (percent change in body weight)” value is “statistically significant suppressive effect on body weight loss”.

Take `CN1CC[C@]23c4c5ccc(O)c4O[C@H]2[C@@H](O)C=C[C@H]3[C@H]1C5` [morphine, Morphine]: the “life-prolonging effect (survival rate / lifetime)” value is “tendency to reduce the lifetime” and the “suppressive effect on body weight loss (percent change in body weight)” value is “tendency of further body weight loss”.
